Assay results as given in PubChem BioAssay (NCI).
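Results reflect a 48-hour exposure of cells in 96-well plates to compound at five concentrations. At the TGI there is no net growth.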

Experiments:
Assay in all cases: inhibition of tumour cell growth, NCI panel, 48 h
[1] = tested on: CAKI-1 renal
[2] = tested on: NCI-H23 lung
[3] = tested on: OVCAR-8 ovarian
[4] = tested on: SNB-19 CNS
[5] = tested on: KM12 colon
[6] = tested on: SNB-75 CNS
[7] = tested on: OVCAR-5 ovarian
[8] = tested on: RXF-631 renal
[9] = tested on: OVCAR-4 ovarian
[10] = tested on: TK-10 renal
[11] = tested on: HL-60(TB) leukemia
[12] = tested on: UACC-257 melanoma
[13] = tested on: NCI-H460 lung
[14] = tested on: MALME-3M melanoma
[15] = tested on: HCT-15 colon
[16] = tested on: CCRF-CEM leukemia
[17] = tested on: A549 NSCLC
[18] = tested on: SW-620 colon
[19] = tested on: UACC-62 melanoma
[20] = tested on: SK-MEL-5 melanoma
[21] = tested on: UO-31 renal
[22] = tested on: RXF 393 renal
[23] = tested on: MOLT-4 leukemia
[24] = tested on: COLO 205 colon
[25] = tested on: IGROV1 ovarian
[26] = tested on: LXFL 529 NSCLC
[27] = tested on: SK-MEL-2 melanoma
[28] = tested on: SNB-78 CNS
[29] = tested on: SF-295 CNS
[30] = tested on: HOP-92 NSCLC
[31] = tested on: LOX IMVI melanoma
[32] = tested on: SK-MEL-28 melanoma
[33] = tested on: DMS 273 small cell lung
[34] = tested on: RPMI-8226 leukemia
[35] = tested on: KM20L2 colon
[36] = tested on: HOP-62 NSCLC
[37] = tested on: SF-268 CNS
[38] = tested on: M14 melanoma
[39] = tested on: SK-OV-3 ovarian
[40] = tested on: DLD-1 colon
[41] = tested on: SN12C renal
[42] = tested on: K-562 leukemia
[43] = tested on: OVCAR-3 ovarian
[44] = tested on: NCI-H522 lung
[45] = tested on: 786-0 renal
[46] = tested on: EKVX NSCLC
[47] = tested on: ACHN renal
[48] = tested on: XF 498 CNS
[49] = tested on: M19-MEL melanoma
[50] = tested on: HCC-2998 colon

In the case of `COc1cc(OC)cc(N2CCC(c3c(N)nc(N)nc3Cl)CC2)c1`, the TGI [1] is reported as greater than 100 µM, the TGI [2] is reported as greater than 100 µM and the TGI [3] is reported as greater than 100 µM. The TGI [4] was greater than 100 µM, the TGI [5] was greater than 100 µM and the TGI [6] was greater than 100 µM. It also gave a TGI [7] greater than 100 µM, a TGI [8] greater than 100 µM and a TGI [9] greater than 100 µM. It also gave a TGI [10] greater than 100 µM, a TGI [11] greater than 100 µM and a TGI [12] greater than 100 µM. It also gave a TGI [13] greater than 100 µM, a TGI [14] greater than 100 µM and a TGI [15] greater than 100 µM. It also gave a TGI [16] greater than 100 µM, a TGI [17] greater than 100 µM and a TGI [18] greater than 100 µM. For the same compound, the TGI [19] was greater than 100 µM, the TGI [20] was 97.7 µM and the TGI [21] was greater than 100 µM. It also gave a TGI [22] greater than 100 µM, a TGI [23] greater than 100 µM and a TGI [24] greater than 100 µM. For the same compound, the TGI [25] was greater than 100 µM, the TGI [26] was greater than 100 µM and the TGI [27] was greater than 100 µM. It also gave a TGI [28] greater than 100 µM, a TGI [29] greater than 100 µM and a TGI [30] greater than 100 µM. For the same compound, the TGI [31] was greater than 100 µM, the TGI [32] was greater than 100 µM and the TGI [33] was greater than 100 µM. The TGI [34] was greater than 100 µM, the TGI [35] was greater than 100 µM and the TGI [36] was greater than 100 µM. It also gave a TGI [37] greater than 100 µM, a TGI [38] greater than 100 µM and a TGI [39] greater than 100 µM. It also gave a TGI [40] greater than 100 µM, a TGI [41] greater than 100 µM and a TGI [42] greater than 100 µM. The TGI [43] was greater than 100 µM, the TGI [44] was greater than 100 µM and the TGI [45] was greater than 100 µM. The TGI [46] was greater than 100 µM, the TGI [47] was greater than 100 µM and the TGI [48] was greater than 100 µM. It also gave a TGI [49] greater than 100 µM and a TGI [50] greater than 100 µM.
